Assay results as given in US20100160314A1, “Small Molecule Inhibitors of Toll-Like Receptor 9” (priority 2006, published 2010).
Where two headings read alike, the source gives them in different places.

Columns and labels:
Format in all cases: cell-based
[1] = target: T1, TLR9 (Homo sapiens, UniProt Q9NR96); assay: Human PBMC, IFN-α readout using CpG ODN 2395 (TLR9 antagonism)
T1 construct: endogenous in cells; host or cells: freshly isolated human PBMC from donor buffy coats
T1 sequence (Q9NR96 26-1032): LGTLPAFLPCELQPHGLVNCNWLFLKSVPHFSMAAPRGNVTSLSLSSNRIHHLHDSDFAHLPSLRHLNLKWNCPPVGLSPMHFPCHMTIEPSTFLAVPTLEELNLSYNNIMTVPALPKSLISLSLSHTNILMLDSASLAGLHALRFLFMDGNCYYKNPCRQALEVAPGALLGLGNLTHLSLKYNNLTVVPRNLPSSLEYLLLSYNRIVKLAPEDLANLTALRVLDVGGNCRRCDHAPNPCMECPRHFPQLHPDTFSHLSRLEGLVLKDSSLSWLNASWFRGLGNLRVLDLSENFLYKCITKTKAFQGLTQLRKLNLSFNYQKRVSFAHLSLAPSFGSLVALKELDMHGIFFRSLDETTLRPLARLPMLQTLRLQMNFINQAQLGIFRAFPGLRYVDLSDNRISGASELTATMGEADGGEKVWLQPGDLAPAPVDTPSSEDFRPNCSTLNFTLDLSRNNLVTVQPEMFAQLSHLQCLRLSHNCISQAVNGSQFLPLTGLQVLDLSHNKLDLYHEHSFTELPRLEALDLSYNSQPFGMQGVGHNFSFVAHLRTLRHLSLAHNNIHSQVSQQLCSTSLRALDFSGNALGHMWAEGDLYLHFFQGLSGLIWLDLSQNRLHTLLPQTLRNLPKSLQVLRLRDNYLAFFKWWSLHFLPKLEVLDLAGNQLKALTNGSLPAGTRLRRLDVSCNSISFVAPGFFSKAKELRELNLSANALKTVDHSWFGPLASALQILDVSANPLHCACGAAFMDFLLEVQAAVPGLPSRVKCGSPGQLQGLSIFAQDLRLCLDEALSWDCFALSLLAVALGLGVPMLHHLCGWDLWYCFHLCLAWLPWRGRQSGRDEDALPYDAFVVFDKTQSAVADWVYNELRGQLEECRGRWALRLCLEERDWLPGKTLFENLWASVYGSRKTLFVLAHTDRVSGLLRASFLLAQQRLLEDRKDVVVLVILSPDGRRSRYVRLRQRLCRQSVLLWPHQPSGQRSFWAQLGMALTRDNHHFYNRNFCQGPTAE
Text: (§1) Peripheral blood mononuclear cell (PBMC) buffy coat preparations from healthy male and female human donors were obtained from the Institute for Hemostaseology and Transfusion Medicine of the University of Düsseldorf (Germany).
(§2) PBMC were purified by centrifugation over Ficoll-Hypaque (Sigma). Purified PBMC were washed twice with 1×PBS and resuspended in RPMI 1640 culture medium supplemented with 5% (v/v) heat-inactivated human AB serum (BioWhittaker, Belgium) or 10% (v/v) heat-inactivated fetal calf serum (FCS), 1.5 mM L-glutamine, 100 U/ml penicillin and […] streptomycin (all from Sigma, Deisenhofen, Germany).
(§3) Freshly isolated PBMC were resuspended at a concentration of 3×10^6/ml to 5×10^6/ml with RPMI 1640 culture medium and added to 96-well round-bottomed plates (150 μl/well) which had previously received nothing or selected concentrations (typically 10 μM-0.085 nM as 7-fold serial dilutions) of small molecule. To assay antagonist reaction for TLR9, 1 μM CpG oligodeoxynucleotide (ODN) 2395 ([…]; SEQ ID NO:3) was added to wells containing small molecules. To assay antagonist reaction for TLR7 and TLR8, 0.5 μM oligoribonucleotide (ORN) R-1362 ([…]; SEQ ID NO:4) complexed to 5 μg/ml DOTAP was added to wells containing small molecules. To calculate response to CpG ODN 2395 alone or ORN R-1362+DOTAP alone, wells without small molecules were stimulated with CpG ODN 2395 or ORN R-1362+DOTAP.
(§4) Cells were cultured in a humidified incubator at 37° C. for 16 h. Culture supernatants were then collected and, if not used immediately, frozen at −20° C. until required.
(§5) Amounts of cytokines in the supernatants were assessed using enzyme-linked immunosorbent assays (ELISA) specific for IFN-α or TNF-α using commercially available antibodies or kits from BD Pharmingen or Diaclone, respectively. IFN-α readout using CpG 2395 was used to measure TLR9 response. IFN-α readout using ORN R-1362+DOTAP was used to measure TLR7 response. TNF-α release using R-1362 complexed to DOTAP was used to measure TLR8-mediated immune response.

[2] = target: T2, TLR8 (Homo sapiens, UniProt Q9NR97); assay: Human PBMC, TNF-α release using ORN R-1362+DOTAP (TLR8 antagonism)
T2 construct: endogenous in cells; host or cells: freshly isolated human PBMC from donor buffy coats
T2 sequence (Q9NR97 27-1041): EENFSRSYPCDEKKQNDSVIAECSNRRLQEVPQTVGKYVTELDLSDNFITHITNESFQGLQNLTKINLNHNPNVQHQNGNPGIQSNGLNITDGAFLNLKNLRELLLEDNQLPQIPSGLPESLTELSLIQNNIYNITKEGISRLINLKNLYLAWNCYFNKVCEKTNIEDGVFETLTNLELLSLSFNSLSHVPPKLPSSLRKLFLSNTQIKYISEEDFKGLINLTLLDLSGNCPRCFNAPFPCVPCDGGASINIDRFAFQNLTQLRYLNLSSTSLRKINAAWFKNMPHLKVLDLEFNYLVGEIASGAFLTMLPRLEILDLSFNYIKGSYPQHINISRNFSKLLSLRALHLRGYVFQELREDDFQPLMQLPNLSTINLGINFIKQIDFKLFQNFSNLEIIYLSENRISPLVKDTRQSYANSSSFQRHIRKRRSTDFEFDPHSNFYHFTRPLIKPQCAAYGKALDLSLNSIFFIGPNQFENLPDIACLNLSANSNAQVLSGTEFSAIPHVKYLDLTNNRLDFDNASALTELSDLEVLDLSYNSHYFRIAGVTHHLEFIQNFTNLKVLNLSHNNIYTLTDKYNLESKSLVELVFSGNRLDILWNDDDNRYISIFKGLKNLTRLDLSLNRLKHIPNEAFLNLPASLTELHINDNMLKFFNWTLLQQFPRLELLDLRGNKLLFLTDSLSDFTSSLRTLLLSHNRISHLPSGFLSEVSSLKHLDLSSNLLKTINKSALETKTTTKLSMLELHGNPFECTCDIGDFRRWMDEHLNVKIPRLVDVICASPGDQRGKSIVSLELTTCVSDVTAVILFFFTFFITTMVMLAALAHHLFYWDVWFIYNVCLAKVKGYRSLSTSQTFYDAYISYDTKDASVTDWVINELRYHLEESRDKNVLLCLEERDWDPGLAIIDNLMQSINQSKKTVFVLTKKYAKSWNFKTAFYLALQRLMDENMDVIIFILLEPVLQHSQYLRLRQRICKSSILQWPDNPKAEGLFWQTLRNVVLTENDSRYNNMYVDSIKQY
Text: as §1, §2, §3, §4, §5

[3] = target: T3, TLR7 (Homo sapiens, UniProt Q9NYK1); assay: Human PBMC, IFN-α readout using ORN R-1362+DOTAP (TLR7 antagonism)
T3 construct: endogenous in cells; host or cells: freshly isolated human PBMC from donor buffy coats
T3 sequence (Q9NYK1 27-1049): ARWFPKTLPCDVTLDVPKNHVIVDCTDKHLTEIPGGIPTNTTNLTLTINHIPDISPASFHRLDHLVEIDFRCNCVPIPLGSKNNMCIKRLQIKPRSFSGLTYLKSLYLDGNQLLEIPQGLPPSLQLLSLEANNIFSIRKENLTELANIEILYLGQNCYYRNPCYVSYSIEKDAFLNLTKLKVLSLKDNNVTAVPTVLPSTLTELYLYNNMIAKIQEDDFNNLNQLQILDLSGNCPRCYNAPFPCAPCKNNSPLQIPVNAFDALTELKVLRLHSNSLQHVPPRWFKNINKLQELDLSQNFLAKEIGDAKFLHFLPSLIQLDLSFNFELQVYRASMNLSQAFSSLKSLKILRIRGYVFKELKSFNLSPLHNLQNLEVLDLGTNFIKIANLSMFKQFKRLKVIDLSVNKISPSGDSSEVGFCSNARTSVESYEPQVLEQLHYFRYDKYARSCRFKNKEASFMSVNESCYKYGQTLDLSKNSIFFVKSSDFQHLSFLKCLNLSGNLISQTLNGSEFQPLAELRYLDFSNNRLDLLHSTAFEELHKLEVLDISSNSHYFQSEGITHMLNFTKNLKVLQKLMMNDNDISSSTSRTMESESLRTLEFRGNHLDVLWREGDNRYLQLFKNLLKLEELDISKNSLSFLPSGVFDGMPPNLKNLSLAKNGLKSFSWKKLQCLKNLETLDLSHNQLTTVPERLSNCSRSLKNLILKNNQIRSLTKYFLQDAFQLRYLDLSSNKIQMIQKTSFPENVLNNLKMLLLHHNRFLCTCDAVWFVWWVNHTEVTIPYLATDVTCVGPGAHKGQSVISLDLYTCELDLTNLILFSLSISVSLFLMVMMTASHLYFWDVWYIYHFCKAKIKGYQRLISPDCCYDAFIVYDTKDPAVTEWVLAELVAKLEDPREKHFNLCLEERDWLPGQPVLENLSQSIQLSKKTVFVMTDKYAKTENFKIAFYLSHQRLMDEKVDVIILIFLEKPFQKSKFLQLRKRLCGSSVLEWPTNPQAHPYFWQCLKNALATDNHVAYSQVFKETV
Text: as §1, §2, §3, §4, §5

[4] = in vitro testing as described in Example 63, read-out: TLR9 IC50, Experimental
[5] = in vitro testing as described in Example 63, read-out: TLR8 IC50, Experimental
[6] = in vitro testing as described in Example 63, read-out: TLR7 IC50, Experimental

`CN1CCN(c2ccc(-c3cc(NCCN4CCOCC4)c4ncccc4n3)cc2)CC1` [6 (CaI)] gave an IC50 [1, 4] of 250 nM, an IC50 [2, 5] of 140 nM and an IC50 [3, 6] of 790 nM.
In the case of `CN1CCN(c2ccc(-c3cc(NCCN4CCOCC4)c4ncccc4n3)cc2)CC1` [6 (BIV)], the IC50 [1, 4] is reported as 44 nM, the IC50 [2, 5] is reported as 100 nM and the IC50 [3, 6] is reported as 70 nM.
For `CN1CCN(c2ccc(-c3cc(NCCN4CCOCC4)c4ncccc4n3)cc2)CC1` [6 (A3I)], the IC50 ([1]; human PBMC, 1 μM CpG ODN 2395, 16 h, IFN-α ELISA, read-out: IC50 TLR9, Experimental) was 73 nM, the IC50 ([2]; human PBMC, 0.5 μM ORN R-1362 + 5 μg/ml DOTAP, 16 h, TNF-α ELISA, read-out: IC50 TLR8, Experimental) was 110 nM and the IC50 ([3]; human PBMC, 0.5 μM ORN R-1362 + 5 μg/ml DOTAP, 16 h, IFN-α ELISA, read-out: IC50 TLR7, Experimental) was 720 nM.
Work on `CN1CCN(c2ccc3nc(-c4ccccc4)nc(NCCN4CCOCC4)c3c2)CC1` [Compound 8 (Example 72)] yielded an IC50 [1, 4] of 78 nM, an IC50 [2, 5] of 18 nM and an IC50 [3, 6] of 76 nM.
With `CN1CCN(c2cc(NCCN3CCOCC3)c3cc(-c4ccccc4)ccc3n2)CC1` [6 (CI)] the IC50 [1, 4] was 200 nM, the IC50 [2, 5] was 600 nM and the IC50 [3, 6] was 200 nM.
For `CN1CCN(c2ccc3nc(-c4ccccc4)cc(NCCN4CCOCC4)c3c2)CC1` [5 (DI)], the IC50 [1, 4] was 72 nM, the IC50 [2, 5] was 28 nM and the IC50 [3, 6] was 75 nM.
